The target in one assay is T1, KLK5 (Homo sapiens, UniProt Q9Y337).
T1 construct: purchased R&D Systems 1108-SE
T1 sequence (Q9Y337 23-293): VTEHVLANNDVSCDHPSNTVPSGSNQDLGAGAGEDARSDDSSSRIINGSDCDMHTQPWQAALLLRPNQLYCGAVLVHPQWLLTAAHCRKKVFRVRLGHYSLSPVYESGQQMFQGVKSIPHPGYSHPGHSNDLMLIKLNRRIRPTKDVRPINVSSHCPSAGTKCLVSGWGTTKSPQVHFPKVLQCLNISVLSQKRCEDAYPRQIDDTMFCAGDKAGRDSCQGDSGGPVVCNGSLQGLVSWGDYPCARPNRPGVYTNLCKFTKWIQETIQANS
Kind of assay: Protease activity assay: inhibition of recombinant KLK5 (Boc-VPR-AMC substrate). The settings on record: ratio of IC50 values. The format is biochemical. The protocol:
Inhibitory activity against KLK5 was evaluated using the fluorogenic substrate Boc-VPR-AMC for KLK5 (Table ). […] The P1–P1′ reactive site (Arg5 to Ser6) is critical for inhibitor binding, with the P1′ position contributing up to 50% of the total association energy. , The conserved serine at P1′ in Bowman-Birk inhibitors (BBIs) is essential for function. […] Preservation of serine in the P1′ position restored inhibitory activity seen in 5 and 6. Preserving the native serine restored efficacy to the nanomolar range (5: 31 ± 7 nM; 6: 114 ± 11 nM).
Methods for biological experiment
SFTI analogues were created by individual amino acid substitutions in PYMOL (Python Molecular Graphics System) using the existing solution NMR structure of native SFTI - 1 (1JBL) found in the RCSB (Research Collaboratory for Structural Bioinformatics) database. Residues of 2 were mutated as follows: L5R, I10H, and F12W with conserved SFTI-1 backbone structure. Other SFTI based analogues were further modified using PYMOL. Currently, there are no SFTI-1 and Kallikrein 5 co-crystal structures found in the RCSB database. Superimposing the existing crystal structure of SFTI-1 and Trypsin complex (4XOJ) with Kallikrein 5 crystal structure (2PSX) was performed with PYMOL. Ab-initio docking between KLK5 and 2 were performed with HADDOCK 2.4 1, 2, with binding active site parameter set to Arg2, Cys3, Thr4, Arg5, Ser6 for 2 and Ser195, His57, and Asp102 for KLK5 catalytic triad. PRODIGY 3-5, set at 25 °C, was used to predict dissociation constant and binding interactions of docked clusters. Structural visualization and alignment were performed with PYMOL 6, and comparative sequence analysis was performed with MEGA11 7.
A fluorescence spectrometer using SpectraMax® i3x plate reader (Molecular Devices, United States) was used to measure the relative fluorescence unit (RFU) on a 96-well black microplate (Grenier Bio-one, cat no. 655074). The wavelengths were set to 360/460 nm (excitation/emission) for the substrate Boc-VPR-AMC (Bachem AG, cat no. 4003460) and 320/405nm for the substrate Mca-RPKPVE-Nval-WRK(Dnp)-NH2 Fluorogenic MMP Substrate (R&D Systems Biotechne, cat no.ES002). The Boc-VPR-AMC stock solution was prepared by dissolving the solid form in dimethyl sulfoxide to 100 mM. Mca-RPKPVE-Nval-WRK(Dnp)-NH2 fluorogenic MMP Substrate is supplied as stock solution at 10.0 mg/mL in dimethyl sulfoxide. Boc-VPR-AMC was used as a substrate for KLK5, 8 and 14. Mca-RPKPVE-Nval-WRK(Dnp)-NH2 was used as a substrate for KLK7. The ligand-only solution serves as a negative control (minimum RFU, 100% inhibition), and enzyme-only was served as positive (maximum RFU, 0% inhibition). The activities of proteases were measured and readout against the standard curve made in serial dilutions of tested recombinant KLKs, ranging from 0nM to 60nM. Each assay was done in triplicates and repeated at least for three times […]
Assessment of analogue mediated inhibition of KLK5, KLK7, KLK8, and KLK14 […]
Recombinant KLK5 (R&D Systems, cat no. 1108-SE) was diluted to a final concentration of 10 nM in 1X PBS (pH 8.0). KLK5 was pre -incubated on ice for 1 hour with serial dilutions of SFTI-derived analogues to assess inhibitory activity. After incubation, 20 µL of each mixture was transferred to we lls of a 96-well microplate in triplicates. The enzymatic reaction was initiated by adding 100 µL of Boc -VPR-AMC substrate (final concentration 100 µM) to each well. Fluorescence (RFU) was measured using a SpectraMax® i3x plate reader with chamber temperature maintained at 37°C. Readings were started at 0 minutes (baseline) and another […]
Recombinant KLK7 (R&D Systems , cat no. 2624-SE) and KLK14 (R&D Systems, cat no. 2664-SE) were activated by adding 1 mM CaCl ₂ 0.05% v/v Brij-35 (Sigma, cat no. […]
incubated at 37°C for 1 hour. Reactions were stopped by adding EDTA to a final concentration of 50 mM (Sigma, cat no. EDS-100G) KLK8 (catalytic domain only; R&D Systems, cat no. 2025-SE-010) was activated separately with 11 nM lysyl […]

In assay [1] the test system is healthy donor keratinocytes. In words: Transepithelial electrical resistance (TEER) assay, healthy donor keratinocytes. The format is cell-based, human. The following applies: 1 μM, 9 days, p > 0.05, n = 54. The source says:
KLK5 regulates epidermal barrier homeostasis by targeting corneodesmosomal proteins involved in cell–cell adhesion, including desmoglein-1 (DSG1), desmocollin-1 (DSC1), and corneodesmosin (CDSN). Dysregulated KLK5 activity can accelerate the degradation of these adhesion molecules, leading to impaired corneocyte cohesion and disruption of the epithelial barrier. To assess whether control of KLK5 activity by lead 7 could improve barrier integrity, the resistance of epidermal sheets generated using NS and healthy donor keratinocytes was measured using a transepithelial electrical resistance (TEER) assay. Keratinocytes from NS keratinocyte and three healthy donors were seeded in 6-well plates and cultured in the medium with 1 μM of lead 7 or without. The medium was replaced every 3 days with fresh lead 7 added in the treated groups. TEER measurements were performed every other day, and cultures were maintained until TEER values reached a plateau (9 days).
Transepithelial Electrical Resistance (TEER) assay […]
Transepithelial electrical resistance (TEER) values in ohms (Ω) were measured using the EVOM™ Manual Resistance Meter (World Precision Instruments, cat no. EVM-MT-03-02). Background resistance was first recorded using inserts containing only medium (without cells). […]
One-way ANOVA was used for KLK5 activity study. […] TEER study data was analysed using the Wilcoxon […]

Bridge positions count the residues as written; N and C are the ends. Peptide text beside a SMILES is read from it.

On to `C[C@@H](O)[C@@H]1NC(=O)[C@@H]2CSSC[C@H](NC(=O)[C@H](CCC(=O)O)NC(=O)[C@@H]3CCCN3C(=O)[C@@H]3CCCN3C(=O)[C@H](CC(N)=O)NC(=O)[C@H](CO)NC(=O)[C@H](CCCNC(=N)N)NC1=O)C(=O)N[C@@H](Cc1c[nH]c3ccccc13)C(=O)N1CCC[C@H]1C(=O)N[C@@H](CC(N)=O)C(=O)NCC(=O)N[C@@H](Cc1ccccc1)C(=O)N2` [compound 7] (cyclo(GFCTRSNPPECWPN); disulfide 3-11), for which, on KLK5, the “increase in KLK5 inhibitory potency (IC50) compared to 2” value is listed as 4 fold and the “increase in KLK5 inhibitory potency (IC50) relative to 1” value is 16 fold. In addition, in assay [1], the “TEER, treated versus untreated healthy donor keratinocytes” value was “no differences”.
